Data set [1] relates to Rheum palmatum. Description: Activity of Rheum palmatum benzalacetone synthase S338V mutant.
Substrate in data set [2]: CC(C)(COP(=O)(O)OP(=O)(O)OC[C@H]1O[C@@H](n2cnc3c(N)ncnc32)[C@H](O)[C@@H]1OP(=O)(O)O)[C@@H](O)C(=O)NCCC(=O)NCCSC(=O)/C=C/c1ccc(O)cc1
The data set is described as follows: Activity of Rheum palmatum benzalacetone synthase.

The results in this text go back to ChEMBL document CHEMBL1139906, “Structure function analysis of benzalacetone synthase from Rheum palmatum” (Bioorg Med Chem Lett, 2007).

Usually Km stands for the concentration of substrate that gives half-maximal velocity. As a reminder, the kcat is the number of substrate molecules converted per active site and unit of time at saturation. Turning to `CC(C)(COP(=O)(O)OP(=O)(O)OC[C@H]1O[C@@H](n2cnc3c(N)ncnc32)[C@H](O)[C@@H]1OP(=O)(O)O)[C@@H](O)C(=O)NCCC(=O)NCCSC(=O)/C=C/c1ccc(O)cc1`, in data set [1], the Km is 9.4 µM and the kcat is 0.053 s⁻¹.

B1: Polyketide synthase BAS (Rheum palmatum), Q94FV7 (protein)
chain: MATEEMKKLATVMAIGTANPPNCYYQADFPDFYFRVTNSDHLINLKQKFKRLCENSRIEKRYLHVTEEILKENPNIAAYEATSLNVRHKMQVKGVAELGKEAALKAIKEWGQPKSKITHLIVCCLAGVDMPGADYQLTKLLDLDPSVKRFMFYHLGCYAGGTVLRLAKDIAENNKGARVLIVCSEMTTTCFRGPSETHLDSMIGQAILGDGAAAVIVGADPDLTVERPIFELVSTAQTIVPESHGAIEGHLLESGLSFHLYKTVPTLISNNIKTCLSDAFTPLNISDWNSLFWIAHPGGPAILDQVTAKVGLEKEKLKVTRQVLKDYGNMSSATVFFIMDEMRKKSLENGQATTGEGLEWGVLFGFGPGITVETVVLRSVPVIS
For B1, in data set [2], the Km was determined as 10 µM and the kcat was found to be 0.0298 s⁻¹.
